Experiment: recombinant UMI read abundance after kanamycin selection (control-corrected) (log10(CPM+1)); higher = more efficient recombination; extreme values may be limits of the assay; sequences stand for … in AGTGCAGAGAAAATCGGCCAGTTTTCTCTGCCTGCAGTCCGCATGCCGTGGGACCCCTTGGGTTCTAACCTGTTGCCTAGATTTATGCAGCGGACTGCCTTTCTCCCAAAGTGATAAACCGG…AGGTTGGTTTCACT; site = the 11-nt donor
Summary of the method: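 In a pooled Escherichia coli screen for the IS621 bridge recombinase, donor and donor-binding-loop pairs were each placed with a 12-nt UMI on a plasmid bearing a promoterless kanamycin gene. This library was co-electroporated with a target plasmid encoding a fixed target and T7-inducible recombinase, and cells were plated either on IPTG (0.07 mM) plus kanamycin or without selection, in two replicates each. Recombinant UMIs were PCR-amplified across the donor–target junction and sequenced, and counts were converted to CPM, averaged over replicates, scaled by control-derived factors and reported as log10(CPM+1).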

Row | Sequence | recombinant UMI read abundance (log10)
1 | CCTAACGCATGGACCGGTTTTCCCGGTAATCCGTATTTGAT (site CCTAATGCTAT) | 0
2 | TGTACGCCATGGACCGGTTTTCCCGGTAATCCGTATTTGAC (site TGTACTCCTGT) | 0
3 | AGAGAGGCATGGACCGGTTTTCCCGGTAATCCGTATTTGCT (site AGATAGGCTAG) | 1.69
4 | TATGCGGCATGGACCGGTTTTCCCGGTAATCCGTATTTGCT (site TGTGCGGCTAG) | 0.029
5 | ACCTATACATGGACCGGTTTTCCCGGTAATCCGTATTTGAC (site ACCTATACTGT) | 1.58
6 | TTAGAAACATGGACCGGTTTTCCCGGTAATCCGTATTTGAT (site TTAGAAACTAT) | 2.51
7 | GTGCATGCATGGACCGGTTTTCCCGGTAATCCGTATTTGGT (site GCGCATGCTAC) | 0.271
8 | ATAATGCCATGGACCGGTTTTCCCGGTAATCCGTATTTGAC (site ATAACGCCTGT) | 0.155
9 | CCCCAGCCATGGACCGGTTTTCCCGGTAATCCGTATTTGCC (site CCCTAGCCTGG) | 0
10 | TCCTACCCATGGACCGGTTTTCCCGGTAATCCGTATTTGAG (site TCCTACCCTCT) | 0.0177
11 | ACCTAGACATGGACCGGTTTTCCCGGTAATCCGTATTTGGA (site ACCTAGACTGC) | 0
12 | TTGGCAACATGGACCGGTTTTCCCGGTAATCCGTATTTGAT (site TTGGCAACTAT) | 0.238
13 | GGTGCGTCATGGACCGGTTTTCCCGGTAATCCGTATTTGTT (site GGTACGTCTAA) | 0.0157
14 | TCACATCCATGGACCGGTTTTCCCGGTAATCCGTATTTGAC (site CCACATCCTGT) | 0
15 | TTAGCTCCATGGACCGGTTTTCCCGGTAATCCGTATTTGTG (site TTAGCTGCTCA) | 0.00795
16 | AGATATCCATGGACCGGTTTTCCCGGTAATCCGTATTTGAT (site AGATATCCTAT) | 1.12
17 | TGTACGCCATGGACCGGTTTTCCCGGTAATCCGTATTTGAC (site TGTACCCCTGT) | 0
18 | TGCTCGGCATGGACCGGTTTTCCCGGTAATCCGTATTTGAT (site TGCTCGGCTAT) | 0.54
19 | GTTGACACATGGACCGGTTTTCCCGGTAATCCGTATTTGGG (site GTTGACACTCC) | 0.371
20 | AGGTACCCATGGACCGGTTTTCCCGGTAATCCGTATTTGTG (site AGGTTCCCTCA) | 0.0248
21 | CTAATGACATGGACCGGTTTTCCCGGTAATCCGTATTTGAT (site CTAATGACTAT) | 1.69
22 | CCCTAGCCATGGACCGGTTTTCCCGGTAATCCGTATTTGCT (site CCCTAGCCTAG) | 0
23 | GGAGAGACATGGACCGGTTTTCCCGGTAATCCGTATTTGCC (site GGAAAGACTGG) | 0
24 | GAAGTCACATGGACCGGTTTTCCCGGTAATCCGTATTTGGG (site GAAGTCACTCC) | 0.412
25 | CTGCTCTCATGGACCGGTTTTCCCGGTAATCCGTATTTGTA (site CTCCTCTCTTA) | 0.876

Row | Sequence | recombinant UMI read abundance (log10)
26 | CCGGATCCATGGACCGGTTTTCCCGGTAATCCGTATTTGTT (site CGGAATCCTAA) | 0.00344
27 | TGTACACCATGGACCGGTTTTCCCGGTAATCCGTATTTGAC (site TGCACACCTGT) | 0
28 | ACACATCCATGGACCGGTTTTCCCGGTAATCCGTATTTGGC (site ACACATCCTGG) | 0
29 | GTGGTGGCATGGACCGGTTTTCCCGGTAATCCGTATTTGTG (site GTGGCGGCTCA) | 0.0357
30 | TAGCAATCATGGACCGGTTTTCCCGGTAATCCGTATTTGCG (site TAGTAATCTCG) | 0.646
31 | CCGAAACCATGGACCGGTTTTCCCGGTAATCCGTATTTGCG (site CCGAAACCTCG) | 0
32 | CAAGCATCATGGACCGGTTTTCCCGGTAATCCGTATTTGCT (site CAAGCATCTAG) | 2.05
33 | GGTATACCATGGACCGGTTTTCCCGGTAATCCGTATTTGGT (site GGTATACCTAC) | 0.00474
34 | GCAGTCTCATGGACCGGTTTTCCCGGTAATCCGTATTTGCA (site ACAGTATCTTG) | 2.38
35 | TCCCCTTCATGGACCGGTTTTCCCGGTAATCCGTATTTGAG (site TCCCCTTCTCT) | 0
36 | ATGCATGCATGGACCGGTTTTCCCGGTAATCCGTATTTGGT (site CTGCATGCTAC) | 0.628
37 | CGACCAACATGGACCGGTTTTCCCGGTAATCCGTATTTGCT (site CGACCAACTAG) | 2.28
38 | CAAGTGACATGGACCGGTTTTCCCGGTAATCCGTATTTGGG (site CAAGTCACTCC) | 0.00913
39 | AGGATGGCATGGACCGGTTTTCCCGGTAATCCGTATTTGGT (site AGGATGGCTAC) | 1.79
40 | AACTTGACATGGACCGGTTTTCCCGGTAATCCGTATTTGCT (site CACTTGACTAG) | 1.12
41 | CGTGGAACATGGACCGGTTTTCCCGGTAATCCGTATTTGTA (site CGTGGAACTGA) | 0
42 | AGCTAGGCATGGACCGGTTTTCCCGGTAATCCGTATTTGGT (site GGCTAGGCTAC) | 0.0154
43 | TAGACGGCATGGACCGGTTTTCCCGGTAATCCGTATTTGGC (site TAGACGGCTGC) | 2.75
44 | CTGGAGACATGGACCGGTTTTCCCGGTAATCCGTATTTGCA (site CTGGACACTTG) | 2.12
45 | TGCTAGGCATGGACCGGTTTTCCCGGTAATCCGTATTTGGT (site TGCGAGGCTAC) | 0.00468
46 | TTAGGTTCATGGACCGGTTTTCCCGGTAATCCGTATTTGGC (site TTAGGTTCTGC) | 2.53
47 | TCATACTCATGGACCGGTTTTCCCGGTAATCCGTATTTGCA (site TCATACTCTTT) | 0.0879
48 | CAATTCTCATGGACCGGTTTTCCCGGTAATCCGTATTTGCT (site CAATTCTCTAG) | 2.19
49 | TCAGAGACATGGACCGGTTTTCCCGGTAATCCGTATTTGGG (site TCAGAGACTCC) | 0
50 | CGATTATCATGGACCGGTTTTCCCGGTAATCCGTATTTGAC (site CGATTATCTGT) | 1.98

Row | Sequence | recombinant UMI read abundance (log10)
51 | GAGCTGACATGGACCGGTTTTCCCGGTAATCCGTATTTGAT (site GAGCTTACTAT) | 0.154
52 | GCCACGCCATGGACCGGTTTTCCCGGTAATCCGTATTTGTA (site GCTACGCCTTA) | 0.0265
53 | TTATCTGCATGGACCGGTTTTCCCGGTAATCCGTATTTGTG (site TTAACTGCTCA) | 0.00525
54 | TGCTAGGCATGGACCGGTTTTCCCGGTAATCCGTATTTGGT (site TGCTAGTCTAC) | 0.00544
55 | TAAAGACCATGGACCGGTTTTCCCGGTAATCCGTATTTGTA (site TAAAGACCTTA) | 0.299
56 | ACTCTACCATGGACCGGTTTTCCCGGTAATCCGTATTTGCT (site ACTCTACCTAG) | 0
57 | TACCGTTCATGGACCGGTTTTCCCGGTAATCCGTATTTGTT (site TACCGTTCTAA) | 0.218
58 | TCCAATTCATGGACCGGTTTTCCCGGTAATCCGTATTTGCC (site TTCAATTCTGG) | 0
59 | AAGTGTGCATGGACCGGTTTTCCCGGTAATCCGTATTTGTC (site AAGTGTGCTGA) | 2.99
60 | TGCGGAACATGGACCGGTTTTCCCGGTAATCCGTATTTGTT (site TGCGGAACTAA) | 0.718
61 | ATGTAGCCATGGACCGGTTTTCCCGGTAATCCGTATTTGGC (site ATGTAGCCTGC) | 0.669
62 | CACGGCCCATGGACCGGTTTTCCCGGTAATCCGTATTTGTC (site CACGGCCCTAA) | 0.214
63 | CACCGTACATGGACCGGTTTTCCCGGTAATCCGTATTTGAT (site CACCGTACTAT) | 1.95
64 | CGGGAGACATGGACCGGTTTTCCCGGTAATCCGTATTTGCC (site CGGGAGGCTGG) | 1.69
65 | CACTCCTCATGGACCGGTTTTCCCGGTAATCCGTATTTGCT (site CACTCCTCTTG) | 1.69
66 | CGTAATCCATGGACCGGTTTTCCCGGTAATCCGTATTTGAT (site CGGAATCCTAA) | 0
67 | TAGCAGTCATGGACCGGTTTTCCCGGTAATCCGTATTTGTC (site TAGCAGTCTGA) | 2.39
68 | TAGCCTTCATGGACCGGTTTTCCCGGTAATCCGTATTTGGT (site CAGCCTTCTAC) | 0.00723
69 | AGGAGTACATGGACCGGTTTTCCCGGTAATCCGTATTTGAC (site AGGACTACTGT) | 0.225
70 | ATTGAAGCATGGACCGGTTTTCCCGGTAATCCGTATTTGCA (site ATTGAAGCTTG) | 2.44
71 | ATGTACGCATGGACCGGTTTTCCCGGTAATCCGTATTTGGC (site ATGTAGGCTGC) | 0
72 | GAAGTCACATGGACCGGTTTTCCCGGTAATCCGTATTTGGG (site CAAGTCACTCC) | 0.0174
73 | CGTGGAACATGGACCGGTTTTCCCGGTAATCCGTATTTGCT (site CGTGGAACTAC) | 0.00778
74 | TGCTAGGCATGGACCGGTTTTCCCGGTAATCCGTATTTGGT (site TGCTAGGCTAG) | 0.0108
75 | TCATACTCATGGACCGGTTTTCCCGGTAATCCGTATTTGCA (site TCATACTCTTG) | 2.69

Source: the supplement of paper PMC11208160
